The source of these data is ChEMBL document CHEMBL1146435, “Anserinones A and B: new antifungal and antibacterial benzoquinones from the coprophilous fungus Podospora anserina” (1997).

Activity calls are given as the source filed them. The calls are words filed in the database; no cut-off is given here.

Assay [1] concerns Staphylococcus aureus. Briefly: Antimicrobial activity against Staphylococcus aureus ATCC 29213 at 200 ug/disk. The class given is functional. The conditions noted are these: read-out: IZ.
Assay [2] relates to Sordaria fimicola. Briefly: Antimicrobial activity against Sordaria fimicola assessed as reduction in radial growth rate at 200 ug/disk by inoculation disk assay. The class given is functional. Set-up: scale not given: the % may be the effect or the level left.
Assay [3] deals with Ascobolus. Briefly: Antimicrobial activity against Ascobolus furfuraceus assessed as reduction in radial growth rate at 200 ug/disk by inoculation disk assay. Type of assay: functional. Details: scale not given: the % may be the effect or the level left.
Assay [4] relates to Bacillus subtilis. Briefly: Antimicrobial activity against Bacillus subtilis ATCC 6051 at 200 ug/disk. Type of assay: functional. The following applies: read-out: IZ.
The nature of assay [5]: Cytotoxicity against human NCI60 cells. The class given is functional.
Assay [6] deals with Candida albicans. Briefly: Antimicrobial activity against Candida albicans ATCC 90029 at 200 ug/disk. Type of assay: functional, organism-based.

The term GI50 denotes the concentration that inhibits growth by half. `COC1=CC(=O)C(C)=C(CC(C)=O)C1=O` [ANSERINONE A]: the zone of inhibition at 200 µg/disc in assay [1] and in assay [4] was 40 mm in each case. Also, the Activity came out at 60% in assay [2] and 100% in assay [3]. In addition, the 50% growth inhibitory concentration (GI50) in assay [5] turned out to be 9.1 µM. Also, in assay [6], the outcome was inactive.

For the compound `COC1=CC(=O)C(C)=C(C[C@H](C)O)C1=O` [ANSERINONE B], the zone of inhibition at 200 µg/disc in assay [1] and in assay [4] was 40 mm throughout. The Activity in assay [2] is recorded as 50%; in assay [3], 37%. Halving of growth in assay [5] (GI50) required 21 µM. Moreover, the result in assay [6] was inactive.
